The target in one test is farnesyl transferase (Homo sapiens, UniProt P49354+P49356). Put plainly: Farnesyl transferase inhibition, [3H]-farnesylation of biotinylated K-ras C-terminal peptide (SPA assay). The format is biochemical. As to conditions: K-Ras substrate; 60 min at 37° C.; mean of two IC50 values; read-out: In vitro inhibitory activity (K-Ras) IC50.
Test [1] relates to HCT116 human colic carcinoma line. Put plainly: In vivo antitumour test, human carcinoma grafted subcutaneously into mice. To be noted: 400 mg/kg/adm., orally. How it is done:
The influence of the compounds according to the invention, administered to mice, on the growth of carcinomas of human origin grafted subcutaneously into these mice was studied.
On day 0 of the experiment, the mice received a tumour fragment (30-60 mg) bilaterally under the skin using a trocar. The bilateral implantation of the tumours ensured a more uniform tumour weight per mouse and thus made it possible to reduce the number of animals per group. The mice were then divided into the different treated and untreated groups.
The product was suspended in an aqueous solution at concentrations that ranged from […], corresponding to doses of 0.1 to 10,000 mg/kg.
The treatments or their possible excipient were administered every day orally, at a maximum volume of 0.2 ml, the duration of administration depending on the doubling time of the tumour.
The tumours were measured 2 to 3 times per week, using a calliper rule, according to two measurements in mm, which were subsequently converted into tumour weight according to the following formula:
tumour weight (mg)=Length (mm)×width^2 (mm^2)/2
An active product was a product which made it possible to limit the growth of the tumour after it had been administered.

`C=C(C(=O)N1C[C@H]2[C@@]3(c4ccc(C)cc4)CC[C@H](c4ccccc43)[C@@]2(C(=O)O)C1)c1ccccc1OC` (single isomer, unassigned) [Example 3, dextrorotatory enantiomer of (3aRS,4SR,9RS,9aRS)-4,9-ethano-2-[2-(2-methoxyphenyl)propenoyl]-9-(4-methylphenyl)-2,3,3a,4,9,9a-hexahydro-1H-benzo[f]isoindole-3a-carboxylic acid]: the IC50 on farnesyl transferase is 28 nM. Moreover, in test [1], the Tumour stabilization result was “Tumour stabilization”.
Regarding `C=C(C(=O)N1C[C@@H]2[C@]3(c4ccc5c(c4)OCCO5)CC[C@@H](c4ccccc43)[C@]2(C(=O)NCc2cccnc2)C1)c1ccccc1OC` (single isomer, unassigned) [Example 35, levorotatory enantiomer of (3aRS,4SR,9SR,9aRS)-9-(2,3-dihydro-1,4-benzodioxin-6-yl)-4,9-ethano-2-[2-(2-methoxyphenyl)propenoyl]-2,3,3a,4,9,9a-hexahydro-1H-benzo[f]isoindole-3a-N-(3-pyridylmethyl)carboxamide], the IC50 at farnesyl transferase is 84 nM.
On the same count and under the same terms, the result for `C=C(C(=O)N1C[C@@H]2[C@]3(c4ccc(C(F)(F)F)cc4)CC[C@@H](c4ccccc43)[C@]2(C(=O)O)C1)c1ccccc1OC` (single isomer, unassigned) [Example 41, dextrorotatory enantiomer of (3aRS,4SR,9SR,9aRS)-4,9-ethano-2-[2-(2-methoxyphenyl)propenoyl]-9-[4-(trifluoromethyl)phenyl]-2,3,3a,4,9,9a-hexahydro-1H-benzo[f]isoindole-3a-carboxylic Acid] reads 9 nM; that for `C=C(C(=O)N1C[C@H]2[C@@]3(c4ccc(OC)cc4)CC[C@H](c4ccccc43)[C@@]2(C(=O)O)C1)c1ccccc1OC` (single isomer, unassigned) [Example 75, Dextrorotatory Enantiomer of (3aRS,4SR,9SR,9aRS)-4,9-ethano-9-(4-methoxyphenyl)-2-[2-(2-methoxyphenyl)propenoyl]-2,3,3a,4,9,9a-hexahydro-1H-benzo[f]isoindole-3a-carboxylic Acid], 8 nM.
Same read-out and setting: next, `C=C(C(=O)N1C[C@H]2[C@@]3(c4ccc(C)cc4)CC[C@H](c4c(OC)cccc43)[C@@]2(C(=O)O)C1)c1ccccc1OC` (single isomer, unassigned) [Example 100, Dextrorotatory Enantiomer of (3aRS,4SR,9SR,9aRS)-4,9-ethano-5-methoxy-2-[2-(2-methoxyphenyl)propenoyl]-9-(4-methylphenyl)-2,3,3a,4,9,9a-hexahydro-1H-benzo[f]isoindole-3a-carboxylic Acid]: less than 19 nM.
As for `C=C(C(=O)N1CC2C3(c4ccc(OC)cc4)CCC(c4ccccc43)C2(C(=O)NC(C(=O)O)c2ccccc2)C1)c1ccccc1OC` (stereo not drawn) [Example 81, (RS)- and (SR)-2-{(3aRS,4SR,9SR,9aRS)-4,9-ethano-9-(4-methoxyphenyl)-2-[2-(2-methoxyphenyl)propenoyl]-2,3,3a,4,9,9a-hexahydro-1H-benzo[f]isoindole-3a-carbonylamino}phenylacetic Acids], at farnesyl transferase, the IC50 is 18 nM.

A word on the IC50: it is the concentration needed to halve the response being measured.

Values taken from patent publication US6218406A, “Farnesyl transferase inhibitors, their preparation, the pharmaceutical compositions which contain them and their use in the preparation of medicaments” (Aventis Pharma S.A., priority 1996, dated 2001).
